Source: paper PMC4564171 (PLoS ONE, 2015)
Entries after “also recorded” stand apart in the source; their conditions may differ. Like-named read-outs stand apart in the source and are kept apart here.

Tests used:
S. flexneri = system: S. flexneri; set-up: method as in PMID 24549153; details: at the tested concentrations; cited from earlier work
[1] = system: spread of an active S. flexneri infection; details: cited from earlier work
[2] = system: VirF-driven transcriptional activation; set-up: method as in PMID 24549153; details: VirF-driven β-galactosidase reporter; read-out: Shigella-Based Reporter Assay IC50; cited from earlier work
[3] = molecular target: T1, MalE-VirF binding to the pvirB DNA probe (Shigella flexneri, UniProt P0A2T1); experiment: Fluorescence polarization (FP) assay, inhibition of MalE-VirF binding to the pvirB DNA probe
T1 construct: pMALvirF was constructed by cloning the virF gene into the vector, pMAL-c2x; made in house; host or cells: Shigella flexneri BS103 (pBAD202-MALvirF); initial preparations in E. coli KS1000 (pMALvirF)
T1 sequence (P0A2T1 whole entry, looked up): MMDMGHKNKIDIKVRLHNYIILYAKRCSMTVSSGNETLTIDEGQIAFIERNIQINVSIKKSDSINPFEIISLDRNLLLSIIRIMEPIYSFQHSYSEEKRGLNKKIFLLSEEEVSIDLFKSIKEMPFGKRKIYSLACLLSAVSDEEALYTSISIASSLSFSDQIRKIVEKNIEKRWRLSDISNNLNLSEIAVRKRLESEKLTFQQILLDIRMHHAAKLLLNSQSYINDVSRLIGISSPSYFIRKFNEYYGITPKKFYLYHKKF
Description: The FP assays were conducted in duplicate in black, half-area, 96-well plates (Corning, Twerksbury, MA). First, 30 μL of 5’-Fluoroscein-pvirB DNA probe working standard was added to appropriate wells of the microplate. The pvirB DNA working standard was in TE/NaCl buffer (see above) supplemented with BSA (0.07 mg/mL) and salmon sperm DNA (0.7 mg/mL). Next, 30 μL of varying concentrations of MalE-VirF in amylose resin elution buffer (see above) was added to appropriate wells of the microplate. The final concentration of pvirB DNA was either 50 nM (for test wells) or none (for blank wells) and the final concentrations of MalE-VirF ranged from 45 μM to 0.12 μM (for test wells) or none (for control wells). For each concentration of MalE-VirF tested, a blank well was also set up that included all reagents except pvirB DNA. The microplate was then incubated for 20 minutes at 37°C and anisotropy was determined using a SpectraMax M5 plate reader (Molecular Devices, Sunnyvale, CA). Data was acquired using an excitation wavelength equal to 490 nm and an emission wavelength equal to 520 nm. To determine anisotropy the following equation was used: Anisotropy=F∥-G^*F⊥/F∥+2^*G^*F⊥^*1000 where: Fǁ = fluorescence intensity parallel to excitation source after blanking, F┴ = fluorescence intensity perpendicular to excitation source after blanking, and G = G-factor (correction for polarization bias of the detection system). After anisotropy was determined, data were plotted using GraphPad Prism (La Jolla, Ca) and fit to the following equation: […] where Y = specific binding, KD = dissociation constant, BMAX = maximum binding, X = MalE-VirF concentration, and b = y-intercept.
The FP protocol listed above was adapted to determine the IC50 of the small molecule hit compounds. Compounds (ranging from 200 μM to 3.1 μM) or DMSO for controls (1% final concentration) were added to the pvirB DNA probe working standard prior to addition to the microplates. For IC50 determination, the MalE-VirF and pvirB DNA probe concentrations were held constant at 20 μM and 50 nM, respectively. Positive controls were established to determine 100% VirF inhibition (no MalE-VirF present, 50 nM pvirB DNA probe) and negative controls were set up to determine no VirF inhibition (1% DMSO, 20 μM MalE-VirF, and 50 nM pvirB DNA probe). Once again blanks were set up to include all reagents, except pvirB DNA probe. All reactions were run in duplicate. Anisotropy was calculated as listed above and data were plotted using GraphPad Prism then fit to the following equation: Y=Bottom+(Top-Bottom)/(1+10^(X-logIC50)) where: Y = anisotropy, X = log of compound concentration (M), Top and Bottom = plateaus in anisotropy units, and LogIC50 = log of the concentration that inhibits 50% of VirF binding. In the presence of the compounds (no VirF), a small increase (~6%) in the DNA anisotropy was observed.
The FP protocol used for IC50 determination was adapted to test a library of small molecule inhibitors of VirF. All steps were identical to the above protocol except compounds were tested at only 100 μM final concentration and positive control samples included 100 μM of compound. Once again blanks were set up to include all reagents, except pvirB DNA probe, and all reactions were run in duplicate. Anisotropy was calculated as listed above, and %inhibition was calculated as follows: %inhibition=rneg-rtest/rneg^*100 where: rneg = average anisotropy for negative controls and rtest = average anisotropy in presence of compound. Note: All rneg and rtest values were normalized to positive control values.

mammalian cells = system: mammalian cells; set-up: method as in PMID 24549153; details: at the tested concentrations; cited from earlier work
[4] = molecular target: T2, MalE-VirF binding to the 5'Cy5-pvirB DNA probe (Shigella flexneri, UniProt P0A2T1); experiment: Electrophoretic mobility shift assay (EMSA) of MalE-VirF binding to pvirB DNA probe; details: compound 100 μM; MalE-VirF 1 μM; probe 0.25 μM
T2 construct: pMALvirF was constructed by cloning the virF gene into the vector, pMAL-c2x; made in house; host or cells: Shigella flexneri BS103 (pBAD202-MALvirF); initial preparations in E. coli KS1000 (pMALvirF)
T2 sequence (P0A2T1 whole entry, looked up): as above
Description: Reactions for the EMSAs were incubated in a 37°C water bath for 15 minutes. Reactions (15 μL total volume) were composed of 6 μL pvirB EMSA DNA probe (0.25 μM), 6 μL of either MalE-VirF (1.0 μM) or native gel loading buffer (Tris-HCl 0.3 M, 50% glycerol, 0.05% bromophenol blue, pH 7.0), 1 μL of salmon sperm DNA (0.7 mg/mL, Invitrogen), 0.5 μL BSA (0.07 mg/mL), and 1.5 μL of either DMSO or compound (100 μM). A 6% native polyacrylamide gel (29:1 acrylamide to bis-acrylamide ratio) was made with 0.25X TBE buffer (22 mM Tris Base, 22 mM boric acid, 0.5 mM EDTA, pH 9.5) for the EMSA. The gel was electrophoresed for 1 hour at 150 V in 0.25X TBE buffer at 4°C before samples were loaded. After the reaction solutions (12 μL) were loaded onto the gel, the gel was electrophoresed for an additional hour at 150 V and 4°C. The gel was then visualized using FluorChem M gel imager (Protein Simple, Santa Clara, CA) with a 607 nm excitation wavelength and a 710 nm emission filter.

In the case of `CN(C)CCOc1nc(-c2ccccc2)nc2c1oc1ccccc12` [compound 19615], the “Toxicity to S. flexneri” value (S. flexneri) is listed as “not toxic”, the “Inhibition of the spread of an active S. flexneri infection” value ([1]; at 6.25 μM) is listed as 75% and the “Inhibition of the spread of an active S. flexneri infection” value ([1]; at concentrations at or below their IC50s in the reporter assay) is listed as “approximately 75%”. For the same molecule, the “Plaque Efficiency Assay IC75” value ([1]; ref Emanuele et al. J. Antibiotics 67:379–386 (2014)) was 6.25 µM, the IC50 [2] was 14 µM and the IC50 [3] was 46 ± 2.2 µM. The Ki [3] was 5.6 µM, the inhibition at 100 µM ([3]; read-out: % Inhibition at 100 μM) was 63% and the “Toxicity to mammalian cells” value (mammalian cells) was “not toxic”. The “Effect on MalE-VirF binding to the pvirB DNA probe (EMSA)” value [4] was “appeared to inhibit MalE-VirF binding; also recorded: dramatically reduced binding”.
